These results are taken from PubChem BioAssay (NCI).

Among the test systems are RPMI-8226 leukemia; SW-620 colon; NCI/ADR-RES ovarian; HT29 colon; A498 renal; MDA-MB-435; SNB-19 CNS; MOLT-4 leukemia; MCF7 breast; CAKI-1 renal; SF-268 CNS; ACHN renal; SN12C renal; A549 NSCLC.
Common to all, as to assay: inhibition of tumour cell growth, NCI panel, 48 h

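Compound exposure: 48 hours, 5 concentrations, 96-well plates. GI50 = concentration required for 50% inhibition of growth. At the TGI there is no net growth.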

On to `CC(=O)[O-].CC(=O)[O-].[NH2-].[Pt+2].c1ccncc1`, for which the TGI in the experiment with RPMI-8226 leukemia, in the experiment on SW-620 colon, in the experiment on NCI/ADR-RES ovarian, in the experiment with HT29 colon, with A498 renal and with MDA-MB-435 was over 100 µM in each case. Besides, the TGI in the experiment on SNB-19 CNS is over 100 µM; with MOLT-4 leukemia it was 27.3 µM; with MCF7 breast, 65.9 µM; in the experiment on CAKI-1 renal, over 100 µM; in the experiment on SF-268 CNS, over 100 µM; in the experiment on ACHN renal it was 32.2 µM. Also, the TGI in the experiment on SN12C renal and in the experiment with A549 NSCLC was over 100 µM in each case. Moreover, the GI50 in the experiment on NCI/ADR-RES ovarian is 80 µM; in the experiment with MDA-MB-435, 53.2 µM; in the experiment on MCF7 breast, 19.4 µM.
With `O=C1c2ccccc2C(=O)N1CCCCCCNOCCCN1C(=O)c2ccccc2C1=O`, the TGI in the experiment with RPMI-8226 leukemia is 99.4 µM; in the experiment on SW-620 colon, over 100 µM; with NCI/ADR-RES ovarian, 70 µM; in the experiment with HT29 colon, over 100 µM; in the experiment with A498 renal it was 93.8 µM; with MDA-MB-435, 74.7 µM. Moreover, the TGI with SNB-19 CNS is over 100 µM; in the experiment on MOLT-4 leukemia it was 38.7 µM; with MCF7 breast, 88.4 µM; in the experiment on CAKI-1 renal, over 100 µM; in the experiment on SF-268 CNS it was over 100 µM; with ACHN renal, over 100 µM. The TGI with SN12C renal and in the experiment with A549 NSCLC was over 100 µM each time.
Turning to `CN(C)CCNC(=O)c1cccc2nc3cccc(F)c3nc12`, the TGI turned out to be 5.65 µM in the experiment on RPMI-8226 leukemia; 5.82 µM in the experiment on SW-620 colon; 3.83 µM in the experiment on NCI/ADR-RES ovarian; 8.34 µM in the experiment with HT29 colon; 5.14 µM in the experiment on A498 renal; 2.92 µM with MDA-MB-435. Moreover, the TGI is over 35 µM with SNB-19 CNS; 14.2 µM in the experiment on MOLT-4 leukemia; 6.56 µM in the experiment with MCF7 breast; 15.8 µM in the experiment on CAKI-1 renal; 19.4 µM in the experiment with SF-268 CNS; 3.56 µM with ACHN renal. Further, the TGI came to 5.48 µM in the experiment with SN12C renal and 2.85 µM in the experiment on A549 NSCLC.
In the case of `CSc1nc2c(N)ncnc2n1C`, the TGI in the experiment with RPMI-8226 leukemia, in the experiment with SW-620 colon, in the experiment with NCI/ADR-RES ovarian, with HT29 colon, in the experiment with A498 renal and in the experiment with MDA-MB-435 was over 100 µM in each case. Besides, the TGI in the experiment with SNB-19 CNS, with MOLT-4 leukemia, in the experiment with MCF7 breast, in the experiment with CAKI-1 renal, with SF-268 CNS and with ACHN renal was over 100 µM each time. Moreover, the TGI in the experiment with SN12C renal and in the experiment on A549 NSCLC was over 100 µM throughout.
For the compound `CC(C)N=C(NC#N)NS(=O)(=O)c1cnccc1Nc1ccc(Cl)cc1`, the TGI in the experiment with RPMI-8226 leukemia, with SW-620 colon, in the experiment on NCI/ADR-RES ovarian, with HT29 colon, in the experiment on A498 renal and in the experiment with MDA-MB-435 was over 100 µM each time. The TGI in the experiment on SNB-19 CNS, in the experiment on MOLT-4 leukemia, with MCF7 breast, in the experiment with CAKI-1 renal, in the experiment with SF-268 CNS and in the experiment with ACHN renal was over 100 µM each time. In addition, the TGI with SN12C renal and with A549 NSCLC was over 100 µM each time.
Consider `c1ccc2sc(C3(N4CCCCC4)CCCCCC3)cc2c1`, for which the TGI in the experiment with RPMI-8226 leukemia is 28.7 µM; in the experiment on SW-620 colon it was 25 µM; in the experiment on NCI/ADR-RES ovarian, 45.8 µM; with HT29 colon it was 31.7 µM; in the experiment with A498 renal, 33.7 µM; in the experiment on MDA-MB-435, 55.2 µM. In addition, the TGI in the experiment with SNB-19 CNS amounted to 39.4 µM; in the experiment on MOLT-4 leukemia, 29.6 µM; in the experiment with MCF7 breast it was 31.9 µM; in the experiment with CAKI-1 renal it was 64.2 µM; in the experiment with SF-268 CNS, 46.7 µM; with ACHN renal it was 35 µM. Also, the values for the TGI in the experiment with SN12C renal and with A549 NSCLC were 41.4 µM and 80.9 µM, respectively.
On to `Cc1ccc2c(=O)c(-c3nnc(N)s3)c[nH]c2n1`, for which the TGI in the experiment with RPMI-8226 leukemia, in the experiment with SW-620 colon, in the experiment on NCI/ADR-RES ovarian, in the experiment on HT29 colon, with A498 renal and in the experiment on MDA-MB-435 was over 100 µM throughout. The TGI with SNB-19 CNS, in the experiment on MOLT-4 leukemia, with MCF7 breast, in the experiment on CAKI-1 renal, in the experiment with SF-268 CNS and with ACHN renal was over 100 µM each time. The TGI with SN12C renal and with A549 NSCLC was over 100 µM each time.
For `Cc1ccc2[nH]c3[nH]c(=O)[nH]c(=O)c3c2c1`, the TGI in the experiment on RPMI-8226 leukemia, with SW-620 colon, in the experiment on NCI/ADR-RES ovarian, with HT29 colon, with A498 renal and in the experiment with MDA-MB-435 was over 100 µM each time. Besides, the TGI with SNB-19 CNS, in the experiment with MOLT-4 leukemia, in the experiment on MCF7 breast, in the experiment with CAKI-1 renal, in the experiment on SF-268 CNS and with ACHN renal was over 100 µM each time. The TGI with SN12C renal and in the experiment with A549 NSCLC was over 100 µM in each case.
With `CN(C)c1ccc(/C=C(\NC(=O)c2ccccc2)C(=O)Nc2ccccc2C(=O)O)cc1`, the TGI in the experiment on RPMI-8226 leukemia, in the experiment on SW-620 colon, in the experiment with NCI/ADR-RES ovarian, with HT29 colon, in the experiment with A498 renal and with MDA-MB-435 was over 100 µM throughout. Further, the TGI in the experiment on SNB-19 CNS, in the experiment with MOLT-4 leukemia, in the experiment on MCF7 breast, in the experiment on CAKI-1 renal, with SF-268 CNS and in the experiment on ACHN renal was over 100 µM throughout. Also, the TGI in the experiment with SN12C renal and in the experiment on A549 NSCLC was over 100 µM throughout.
On to `CCn1c(=O)ccc2ccc(N(CCO)CCO)nc21`, for which the TGI in the experiment on RPMI-8226 leukemia, in the experiment on SW-620 colon, in the experiment with NCI/ADR-RES ovarian, with HT29 colon, in the experiment with A498 renal and with MDA-MB-435 was over 100 µM in each case. Also, the TGI with SNB-19 CNS, with MOLT-4 leukemia, with MCF7 breast, with CAKI-1 renal, in the experiment with SF-268 CNS and with ACHN renal was over 100 µM in each case. For the same compound, the TGI in the experiment with SN12C renal and in the experiment on A549 NSCLC was over 100 µM throughout.
